Measurements from US5770575A, “Nipecotic acid derivatives as antithrombotic compounds” (Ortho Pharmaceutical Corporation, priority 1995, dated 1998).
pIC50: −log10 of the molar value. “Also recorded” adds a separate entry of the source.

Legend:
[1] = design: species or system mongrel dogs; settings: dog, in vivo, iv
Method: (§1) Arterial blood samples (5-9 ml) were withdrawn into tubes containing 3.8% sodium citrate to prepare platelet rich plasma (PRP) and to determine effects on coagulation parameters: prothrombin time (PT) and activated partial thromboplastin time (APTT). Separate blood samples (1.5 ml) were withdrawn in EDTA to determine hematocrit and cell counts (platelets, RBC's and white cells). Template bleeding times were obtained from the buccal surface using a symplate incision devise and Whatman filter paper.
(§2) Aggregation of PRP was performed using a BioData aggregometer. Aggregation of whole blood used a Chronolog impedance aggregometer. PT and APTT were determined on either a BioData or ACL 3000+ coagulation analyser. Cells were counted with a Sysmex K-1000.
(§3) Compound 17 was solubilized in a small volume of dimethylformamide (DMF) and diluted with saline to a final concentration of 10% DMF. Compound 17 was administered by the intravenous route with a Harvard infusion pump. Doses of 0.3, 1, 3, and 10 mg/kg were given in a cumulative fashion to each animal. Each dose was administered over a 15 min interval at a constant rate of 0.33 ml/min. Data were obtained after each dose and 30 and 60 min following the end of drug administration.

GPIIb/IIIa = biological target: T1, GPIIb/IIIa (Homo sapiens, UniProt P05106+P08514); test: In vitro solid phase purified glycoprotein IIb/IIIa binding assay (biotinylated fibrinogen); settings: Table I
T1 sequence (P08514 32-887 limits assumed): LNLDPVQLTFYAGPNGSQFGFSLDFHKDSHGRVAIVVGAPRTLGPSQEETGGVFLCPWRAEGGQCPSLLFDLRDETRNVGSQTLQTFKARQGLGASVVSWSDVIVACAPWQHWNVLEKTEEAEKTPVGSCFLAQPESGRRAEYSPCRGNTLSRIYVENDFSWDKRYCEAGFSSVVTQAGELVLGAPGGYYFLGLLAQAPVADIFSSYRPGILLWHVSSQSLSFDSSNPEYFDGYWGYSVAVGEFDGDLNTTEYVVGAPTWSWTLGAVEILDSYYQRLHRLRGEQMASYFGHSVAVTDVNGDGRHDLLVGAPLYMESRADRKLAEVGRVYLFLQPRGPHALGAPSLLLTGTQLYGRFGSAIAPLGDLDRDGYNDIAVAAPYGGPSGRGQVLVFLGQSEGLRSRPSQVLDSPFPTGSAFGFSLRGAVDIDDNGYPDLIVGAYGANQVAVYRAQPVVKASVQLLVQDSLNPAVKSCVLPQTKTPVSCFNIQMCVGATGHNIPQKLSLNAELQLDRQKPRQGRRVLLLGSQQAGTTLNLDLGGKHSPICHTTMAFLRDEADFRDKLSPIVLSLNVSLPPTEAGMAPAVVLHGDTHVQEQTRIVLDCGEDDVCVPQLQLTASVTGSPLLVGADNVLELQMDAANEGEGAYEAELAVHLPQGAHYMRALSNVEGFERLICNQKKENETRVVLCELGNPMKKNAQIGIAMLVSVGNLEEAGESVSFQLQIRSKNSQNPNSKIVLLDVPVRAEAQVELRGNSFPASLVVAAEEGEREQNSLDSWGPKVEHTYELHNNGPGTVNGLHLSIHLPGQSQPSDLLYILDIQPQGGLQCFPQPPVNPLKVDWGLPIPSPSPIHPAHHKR
T1 sequence (P05106 27-788): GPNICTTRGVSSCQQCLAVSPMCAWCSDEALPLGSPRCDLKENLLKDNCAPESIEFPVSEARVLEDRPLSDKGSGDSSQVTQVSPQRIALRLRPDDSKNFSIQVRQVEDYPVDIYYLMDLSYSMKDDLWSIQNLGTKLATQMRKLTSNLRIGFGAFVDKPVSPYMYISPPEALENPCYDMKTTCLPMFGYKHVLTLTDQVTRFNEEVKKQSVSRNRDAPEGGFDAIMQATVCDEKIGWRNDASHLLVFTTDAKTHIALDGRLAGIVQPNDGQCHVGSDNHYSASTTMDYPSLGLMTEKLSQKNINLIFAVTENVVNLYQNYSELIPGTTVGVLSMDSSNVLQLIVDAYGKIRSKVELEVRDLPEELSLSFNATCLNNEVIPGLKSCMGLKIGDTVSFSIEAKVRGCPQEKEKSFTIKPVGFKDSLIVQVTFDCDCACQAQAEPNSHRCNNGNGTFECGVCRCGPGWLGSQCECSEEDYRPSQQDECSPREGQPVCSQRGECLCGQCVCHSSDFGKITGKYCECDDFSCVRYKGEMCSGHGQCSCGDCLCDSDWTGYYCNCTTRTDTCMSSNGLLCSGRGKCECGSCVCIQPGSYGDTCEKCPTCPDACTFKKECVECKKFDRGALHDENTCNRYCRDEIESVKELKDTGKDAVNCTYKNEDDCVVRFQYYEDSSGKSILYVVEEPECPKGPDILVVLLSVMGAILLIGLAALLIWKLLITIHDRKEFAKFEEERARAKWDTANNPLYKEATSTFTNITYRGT
Description: The compounds of the present invention interrupt binding of fibrinogen to platelet glycoprotein IIb/IIIa (GPIIb/IIIa) and thereby inhibit platelet aggregation. […] Because the final, common pathway in normal platelet aggregation is the binding of fibrinogen to activated, exposed GPIIb/IIIa, inhibition of this binding represents a plausible antithrombotic approach. The receptor is activated by stimuli such as ADP, collagen, and thrombin, exposing binding domains to two different peptide regions of fibrinogen: α-chain Arg-Gly-Asp (RGD) and γ-chain 400-411.
IN VITRO SOLID PHASE PURIFIED GLYCOPROTEIN IIB/IIIA BINDING ASSAY.
The plate is covered and incubated overnight at 4° C. The GPIIb/IIa solution is discarded and 150 μl of 5% BSA is added and incubated at RT for 1-3 h. The plate is washed extensively with modified Tyrodes buffer. Biotinylated fibrinogen (25 μl/well) at 2× final concentration is added to the wells that contain the test compounds (25 μl/well) at 2× final concentration. The plate is covered and incubated at RT for 2-4 h. Twenty minutes prior to incubation completion, one drop of Reagent A (Vecta Stain ABC Horse Radish Peroxidase kit, Vector Laboratories, Inc.) and one drop Reagent B are added with mixing to 5 mL modified Tyrodes buffer mix and let stand. The ligand solution is discarded and the plate washed (5×200 μl/well) with modified Tyrodes buffer. Vecta Stain HRP-Biotin-Avidin reagent (50 μl/well, as prepared above) is added and incubated at RT for 15 min. The Vecta Stain solution is discarded and the wells washed (5×200 μl/well) with modified Tyrodes buffer. […] The absorbance is read at 490 nm.

gel-filtered platelets = test: In vitro inhibition of thrombin-induced gel-filtered platelet aggregation assay; format: cell-based; settings: *Indicates IC50, read-out: Pl. Aggr. IC50
Method: IN VITRO INHIBITION OF THROMBIN-INDUCED GEL-FILTERED PLATELET AGGREGATION ASSAY.
The percentage of platelet aggregation is calculated as an increase in light transmission of compound treated platelet concentrate vs. control treated platelet concentrate. Blood is obtained from drug free, normal donors into tubes containing 0.13M sodium citrate. Platelet rich plasma (PRP) is collected by centrifugation of whole blood at 200×g for 10 min at 25° C. The PRP (5 mL) is gel filtered through Sepharose 2B (bed volume 50 mL), and the platelet count is adjusted to 2×10^7platelets per sample. The following constituents are added to a siliconized cuvette: concentrated platelet filtrate and Tyrode's buffer (0.1 4M NaCl, 0.0027M KCl, 0.01 2M NaHCO3, 0.76 mM Na2 HPO4, 0.0055M glucose, 2 mg/mL BSA and 5.0 mM HEPES @ pH 7.4) in an amount equal to 350 μl, 50 μl of 20 mM calcium and 50 μl of the test compound. Aggregation is monitored in a BIODATA aggregometerforthe 3 min following the addition of agonist (thrombin 50 μl of 1 unit/mL).

platelet aggregation = test: Ex vivo dog study: platelet aggregation and ATP release in whole blood and PRP; design: species or system mongrel dogs
Method: Adult mongrel dogs (8-13 kg) were anesthetized with sodium pentobarbital (35 mg/kg, i.v.) and artificially respired. Arterial blood pressure and heart rate were measured using a Millar catheter-tip pressure transducer inserted in a femoral artery. Another Millar transducer was placed in the left ventricle (LV) via a carotid artery to measure LV end diastolic pressure and indices of myocardial contractility. A lead II electrocardiogram was recorded from limb electrodes. Catheters were placed in a femoral artery and vein to sample blood and infuse drugs, respectively. Responses were continuously monitored using a Modular Instruments data aquisition system.
as §1, §2, §3

O=C(O)CCNC(=O)C1CCCN(C(=O)CCC2CCNCC2)C1 (stereo not drawn) [Compound 17, N-[3-(4-Piperidinepropionyl)]-Nip-β-Ala-OH]
bleeding time at the higher doses [1]: increases in bleeding time at the higher doses
coagulation (PT or APTT) [1]: No effects on coagulation
platelet, white and RBC counts [1]: unchanged at any dose
pIC50 (GPIIb/IIIa): 8.52
pIC50 (gel-filtered platelets): 6.89
platelet function began to recover (platelet aggregation; PRP and whole blood, post treatment): 30 to 60 min
Gamma thrombin induced aggregation of PRP (platelet aggregation; PRP, doses of 3.0 mg/kg and above, iv): inhibited at doses of 3.0 mg/kg and above
collagen stimulated platelet aggregation, PRP (platelet aggregation; PRP, marked activity at 0.3 mg/kg iv): marked activity at 0.3 mg/kg
duration of drug action / antiaggregatory effect (platelet aggregation; iv): relatively short duration of drug action
ex vivo platelet aggregation responses (platelet aggregation; iv, 0.3-10 mg/kg cumulative): marked inhibition of ex vivo platelet aggregation responses; also recorded: broadly effective inhibitor of platelet aggregation ex vivo
collagen stimulated platelet ATP release (platelet aggregation; whole blood, 10 mg/kg iv): marked inhibition
collagen-stimulated aggregation, whole blood (platelet aggregation; whole blood, doses of 0.3-10 mg/kg iv): inhibited
